Experimental data from publication PMC10454728, “A Comparative Study on the Lysosomal Cation Channel TMEM175 Using Automated Whole-Cell Patch-Clamp, Lysosomal Patch-Clamp, and Solid Supported Membrane-Based Electrophysiology: Functional Characterization and High-Throughput Screening Assay Development” (International Journal of Molecular Sciences, 2023).

How the values were obtained:
TMEM175 [1] = target: T1, TMEM175 (Homo sapiens, UniProt Q9BSA9); assay: SSME cation selectivity assay with 4-AP block (SURFE2R 96SE); format: biochemical; details: 10 mM 4-AP
T1 sequence (Q9BSA9 1-504): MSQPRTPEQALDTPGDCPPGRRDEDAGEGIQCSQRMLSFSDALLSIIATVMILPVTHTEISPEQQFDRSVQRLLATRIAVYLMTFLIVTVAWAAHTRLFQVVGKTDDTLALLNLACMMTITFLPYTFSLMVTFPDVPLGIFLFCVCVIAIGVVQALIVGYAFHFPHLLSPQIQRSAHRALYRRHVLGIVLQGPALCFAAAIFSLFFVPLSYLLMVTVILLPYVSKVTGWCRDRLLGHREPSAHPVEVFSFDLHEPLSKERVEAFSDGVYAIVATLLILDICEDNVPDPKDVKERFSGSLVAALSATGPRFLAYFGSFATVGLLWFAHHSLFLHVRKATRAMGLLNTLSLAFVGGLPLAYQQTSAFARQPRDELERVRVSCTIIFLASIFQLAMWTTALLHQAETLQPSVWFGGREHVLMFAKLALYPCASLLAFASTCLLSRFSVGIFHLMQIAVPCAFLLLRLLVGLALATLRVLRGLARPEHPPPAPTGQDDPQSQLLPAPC
Text: We performed the same experiment on lysosomes purified from HEK293 cells overexpressing TMEM175 (TMEM175 sample, Figure 2B) and control lysosomes that were purified from HEK293 cells expressing endogenous TMEM175 (control sample, Figure 2C), using a low sample dilution to enhance the signal-to-noise.
We also performed a similar series of experiments on the SURFE^2R 96SE, essentially reproducing the results found with the SURFE^2R N1 (Figure 2E). […] Supplementary Figure S2 contains representative current traces and additional experimental details.
We applied a solution exchange from 50 mM NMDG-Cl to 50 mM of a different Cl salt at pH 7.6; (B) Representative current traces recorded with the TMEM175 sample. All traces are recorded from the same sensor; (C) Representative current traces recorded with the control sample. Currents reflect background signals (artifacts) resulting from ion–membrane interactions; (D) Average peak currents and SD for N = 5 sensors recorded with the TMEM175 and control samples; (E) Average peak currents and SEM for N = 16 sensors, recorded with the TMEM175 (left) and control (right) sample. […]
Ion selectivity of TMEM175 recorded on the SURFE2R 96SE. Representative current traces recorded using different cation species on TMEM175 and control samples using the SURFE2R 96SE. […]

[2] = system: control lysosomes expressing endogenous TMEM175; assay: SSME off-target compound effects on control lysosomes (SURFE2R 96SE); format: biochemical, human
Text: ; (A) Dose-response curves for SC-79; (B) Dose-response curves for cluster 1 compounds showing similar effects with all three technologies; (C) Dose-response curves for cluster 2 compounds showing no activity in LPC, but higher activity in APC; (D) Dose-response curves for cluster 3 compounds showing high activity in LPC, but lower activity in APC; For all assay technologies, datapoints were normalized to the current recorded before compound addition and averaged across at least N = 3 individual experiments. For clarity reasons, the SEM is not shown; the average relative SEM after averaging datapoints recorded with two highest compound concentrations is 35.6% for LPC data and 2.9% for SSME data. The APC data were acquired using a voltage application protocol distinct from the one depicted in Figure 7B, as described in the Methods section. Datasets were not corrected for artifacts (as observed in SSME) or off-target compound effects. For SSME data, we indicate the difference in the peak current when applying the four highest concentrations of a compound to control lysosomes (to assess off-target effects) compared to the current recorded with TMEM175 lysosomes prior to compound addition. […] Considerable off-target compound effects are observed when the given percentage approaches the percentage of enhancement recorded with the TMEM175 sample at the given compound concentration. […] . When an EC50 value was determined from the fit, it is highlighted by a vertical dotted line. […]
We also investigated the effect of the eight test compounds on the artifact currents recorded with control lysosomes using the SURFE^2R 96SE.
Artifact currents are typically in the range of −1 nA, while TMEM175 sample currents are +4 nA (Figure 1K). […] This corresponds to 3% to 30% of the current recorded with the TMEM175 sample in the absence of the compound. […]
a. For each single well, we performed an in-well normalization: the artifact corrected peak current obtained using a given condition is devided by the artifact corrected reference peak current recorded within the same well. b. […]

TMEM175 [3] = target: T1, TMEM175; assay: SSME K+ flux compound assay on purified lysosomes overexpressing TMEM175 (SURFE2R 96SE); format: biochemical

Nc1ccncc1 [4-AP, 4-aminopyridine]
Block of TMEM175 net currents for K+, Rb+ and Cs+ (TMEM175 [1]): complete blockade

CCCCC1(C2CCCC2)Cc2cc(OCCCC(=O)O)c(Cl)c(Cl)c2C1=O (stereo not drawn) [DCPIB]
Off-target effect of DCPIB on control lysosomes (SURFE2R 96SE) ([2]; 20 µM and below): did not have an effect
Off-target effect of DCPIB on control lysosomes (SURFE2R 96SE) ([2]; 60 µM DCPIB, Figure S5): off-target inhibition
Effect of K+ concentration (driving force) on apparent EC50 (TMEM175 [3]; 2, 5, 10, 50 mM K+, 3, 10, 30 µM DCPIB): not affected

CCOC(=O)C1=C(N)Oc2ccc(Cl)cc2C1C(C#N)C(=O)OCC (stereo not drawn) [SC-79]
EC50 (TMEM175 [3]; 50 mM K+ jump, not corrected for artifacts or off-target effects): 2.9 ± 2.3 µM

[Cl-].[Cl-].[Zn+2] [Zn, ZnCl2]
Off-target effect of zinc on control lysosomes (SURFE2R 96SE) ([2]; in-plate control, Figure S5): small off-target inhibition
